# The source made the active and inactive calls.
# Assays:
# Format in all cases: functional
# [1] = target: Protein kinase C gamma type (Homo sapiens, UniProt P05129)
# [2] = target: Serine/threonine-protein kinase PAK 1 (Homo sapiens, UniProt Q13153)
# Ephrin type-A receptor 2 = Ephrin type-A receptor 2 (Homo sapiens, UniProt P29317);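 also: EPHA2 tested as one member of a kinome-wide kinase panel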
# [3] = target: Homeodomain-interacting protein kinase 4 (Homo sapiens, UniProt Q8NE63)
# [4] = target: STE20-like serine/threonine-protein kinase (Homo sapiens, UniProt Q9H2G2)
# [5] = target: Cyclin-dependent kinase 1 (Homo sapiens, UniProt P06493);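 also: Kinome-wide panel profiling, with the target listed as panel member CDC2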
# [6] = target: Glycogen synthase kinase-3 beta (Homo sapiens, UniProt P49841);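 also: value comes from a broad kinome profiling panel, with GSK3B as the panel member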
# [7] = target: Calcium/calmodulin-dependent protein kinase type II subunit delta (Homo sapiens, UniProt Q13557)
# LIM domain kinase 1 = LIM domain kinase 1 (Homo sapiens, UniProt P53667); test: Navigating the Kinome. Panel member name: LIMK1
# Misshapen-like kinase 1 = Misshapen-like kinase 1 (Homo sapiens, UniProt Q8N4C8);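 also: kinome panel screen with MINK as the panel member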
# Aurora kinase B = Aurora kinase B (Homo sapiens, UniProt Q96GD4)
# [8] = target: Serine/threonine-protein kinase 3 (Homo sapiens, UniProt Q13188);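 also: measured as one member of a kinome-wide kinase panel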
# [9] = target: Tyrosine-protein kinase JAK2 (Homo sapiens, UniProt O60674);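 also: JAK2 tested as one member of a kinase panel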
# [10] = target: Serine/threonine-protein kinase PLK1 (Homo sapiens, UniProt P53350);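 also: PLK1 measured as one member of a kinome-wide profiling panel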
# [11] = target: Serine/threonine-protein kinase MRCK alpha (Homo sapiens, UniProt Q5VT25)
# [12] = target: Receptor tyrosine-protein kinase erbB-2 (Homo sapiens, UniProt P04626); test: Navigating the Kinome. Panel member name: ERBB2
# [13] = target: Tyrosine-protein kinase receptor TYRO3 (Homo sapiens, UniProt Q06418);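 also: TYRO3 value obtained as one member of a kinome-wide profiling panel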
# [14] = target: Tyrosine-protein kinase ITK/TSK (Homo sapiens, UniProt Q08881);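 also: affinity for ITK measured as one member of a broad kinase panel profiling binding across the kinome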
# [15] = target: Mast/stem cell growth factor receptor Kit (Homo sapiens, UniProt P10721);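 also: KIT entry within a kinase panel assay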
# [16] = target: Mitogen-activated protein kinase 8 (Homo sapiens, UniProt P45983);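 also: value comes from one member of a kinome-wide kinase profiling panel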
# [17] = target: Serine/threonine-protein kinase 17A (Homo sapiens, UniProt Q9UEE5)
# [18] = target: Mitogen-activated protein kinase 1 (Homo sapiens, UniProt P28482)
# [19] = target: Receptor tyrosine-protein kinase erbB-4 (Homo sapiens, UniProt Q15303);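 also: ERBB4 member of a kinome-wide kinase profiling panel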
# [20] = target: Homeodomain-interacting protein kinase 2 (Homo sapiens, UniProt Q9H2X6);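 also: measured within a kinome-wide kinase profiling panel, HIPK2 being one panel member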
# Aurora kinase A = Aurora kinase A (Homo sapiens, UniProt O14965);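 also: value from the Navigating the Kinome kinase panel profiling, panel entry STK6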
# [21] = target: Tyrosine-protein kinase ABL1 (Homo sapiens, UniProt P00519)
# [22] = target: Death-associated protein kinase 3 (Homo sapiens, UniProt O43293);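 also: measured as one member of a kinome-wide profiling panel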
# [23] = target: ALK tyrosine kinase receptor (Homo sapiens, UniProt Q9UM73);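 also: ALK tested as one member of a kinase panel screen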
# [24] = target: Serine/threonine-protein kinase PLK4 (Homo sapiens, UniProt O00444);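 also: PLK4 measured as one member of a kinome-wide kinase profiling panel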
# [25] = target: Protein-tyrosine kinase 6 (Homo sapiens, UniProt Q13882)
# [26] = target: 3-phosphoinositide-dependent protein kinase 1 (Homo sapiens, UniProt O15530);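 also: value comes from the Navigating the Kinome panel, PDPK1 member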
# [27] = target: Tyrosine-protein kinase JAK3 (Homo sapiens, UniProt P52333)
# [28] = target: Vascular endothelial growth factor receptor 3 (Homo sapiens, UniProt P35916);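 also: value from a kinome-wide profiling panel, with FLT4 as the panel member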
# [29] = target: Serine/threonine-protein kinase D2 (Homo sapiens, UniProt Q9BZL6);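 also: measured against PRKD2 as one member of a kinome-wide kinase profiling panel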
# [30] = target: Tyrosine-protein kinase SYK (Homo sapiens, UniProt P43405)
# [31] = target: Dual specificity tyrosine-phosphorylation-regulated kinase 1A (Homo sapiens, UniProt Q13627);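 also: measured against DYRK1A as one member of a broad kinome profiling panel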
# [32] = target: Tyrosine-protein kinase Lyn (Homo sapiens, UniProt P07948);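 also: lyn as one member of a kinase panel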
# [33] = target: cAMP-dependent protein kinase catalytic subunit PRKX (Homo sapiens, UniProt P51817)
# [34] = target: Phosphorylase b kinase gamma catalytic chain, liver/testis isoform (Homo sapiens, UniProt P15735);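 also: PHKG2 measured as one member of a kinome-wide kinase panel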
# [35] = target: Calcium/calmodulin-dependent protein kinase type II subunit gamma (Homo sapiens, UniProt Q13555)
# [36] = target: Serine/threonine-protein kinase Nek2 (Homo sapiens, UniProt P51955)
# [37] = target: MAP/microtubule affinity-regulating kinase 3 (Homo sapiens, UniProt P27448);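 also: MARK3 affinity measured as one member of a kinome panel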
# [38] = target: Protein kinase C delta type (Homo sapiens, UniProt Q05655)
# [39] = target: Ribosomal protein S6 kinase alpha-5 (Homo sapiens, UniProt O75582)
# [40] = target: Vascular endothelial growth factor receptor 1 (Homo sapiens, UniProt P17948);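 also: measured within a kinome-wide profiling panel, FLT1 as the panel member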
# [41] = target: Hepatocyte growth factor receptor (Homo sapiens, UniProt P08581);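 also: kinase panel profiling across the kinome, with MET as the panel member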
# [42] = target: Protein kinase C iota type (Homo sapiens, UniProt P41743);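 also: measured within a kinome-wide kinase panel, PRKCI as panel member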
# Chain of Calcium/calmodulin-dependent protein kinase type II subunit delta (Q13557 whole entry, the tested form may be a part): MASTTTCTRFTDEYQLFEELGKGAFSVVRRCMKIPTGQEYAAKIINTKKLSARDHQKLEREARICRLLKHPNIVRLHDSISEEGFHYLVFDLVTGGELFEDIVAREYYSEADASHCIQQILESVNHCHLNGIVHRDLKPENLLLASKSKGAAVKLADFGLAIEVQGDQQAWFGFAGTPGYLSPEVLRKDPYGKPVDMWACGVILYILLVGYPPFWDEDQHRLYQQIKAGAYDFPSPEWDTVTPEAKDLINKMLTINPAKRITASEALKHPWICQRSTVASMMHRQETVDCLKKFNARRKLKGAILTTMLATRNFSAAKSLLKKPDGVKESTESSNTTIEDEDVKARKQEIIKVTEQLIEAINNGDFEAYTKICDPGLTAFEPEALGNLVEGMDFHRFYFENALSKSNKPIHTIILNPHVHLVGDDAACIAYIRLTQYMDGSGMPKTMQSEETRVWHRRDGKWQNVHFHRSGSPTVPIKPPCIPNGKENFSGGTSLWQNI
# Chain of Tyrosine-protein kinase ABL1 (P00519 whole entry): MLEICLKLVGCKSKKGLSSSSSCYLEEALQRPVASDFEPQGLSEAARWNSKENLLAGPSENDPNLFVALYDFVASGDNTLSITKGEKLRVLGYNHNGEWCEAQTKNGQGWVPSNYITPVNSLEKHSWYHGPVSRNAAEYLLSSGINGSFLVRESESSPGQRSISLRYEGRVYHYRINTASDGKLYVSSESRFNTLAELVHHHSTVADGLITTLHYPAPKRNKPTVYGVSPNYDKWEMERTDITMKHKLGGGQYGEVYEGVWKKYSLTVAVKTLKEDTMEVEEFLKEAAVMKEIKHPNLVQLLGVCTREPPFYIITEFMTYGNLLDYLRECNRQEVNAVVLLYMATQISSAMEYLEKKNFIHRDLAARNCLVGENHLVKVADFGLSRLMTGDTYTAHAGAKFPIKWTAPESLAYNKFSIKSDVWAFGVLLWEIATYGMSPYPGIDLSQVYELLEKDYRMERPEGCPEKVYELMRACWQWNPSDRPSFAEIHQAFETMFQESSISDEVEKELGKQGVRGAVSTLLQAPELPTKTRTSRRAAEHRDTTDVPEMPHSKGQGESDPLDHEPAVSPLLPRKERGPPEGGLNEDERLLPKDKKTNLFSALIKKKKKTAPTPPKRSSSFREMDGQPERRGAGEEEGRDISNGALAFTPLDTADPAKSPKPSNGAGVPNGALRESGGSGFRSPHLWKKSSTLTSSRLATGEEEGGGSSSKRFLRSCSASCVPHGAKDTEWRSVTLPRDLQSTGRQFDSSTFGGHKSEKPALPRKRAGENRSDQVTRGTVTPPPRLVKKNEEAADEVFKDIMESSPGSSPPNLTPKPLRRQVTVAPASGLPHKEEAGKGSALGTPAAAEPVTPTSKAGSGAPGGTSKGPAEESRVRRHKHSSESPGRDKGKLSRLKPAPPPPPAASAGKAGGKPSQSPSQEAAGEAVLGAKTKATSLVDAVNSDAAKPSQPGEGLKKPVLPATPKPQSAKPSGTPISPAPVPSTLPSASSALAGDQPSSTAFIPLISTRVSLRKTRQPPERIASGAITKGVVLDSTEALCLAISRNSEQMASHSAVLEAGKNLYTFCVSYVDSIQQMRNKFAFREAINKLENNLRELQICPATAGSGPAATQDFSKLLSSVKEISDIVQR
# Chain of Mitogen-activated protein kinase 8 (P45983 whole entry): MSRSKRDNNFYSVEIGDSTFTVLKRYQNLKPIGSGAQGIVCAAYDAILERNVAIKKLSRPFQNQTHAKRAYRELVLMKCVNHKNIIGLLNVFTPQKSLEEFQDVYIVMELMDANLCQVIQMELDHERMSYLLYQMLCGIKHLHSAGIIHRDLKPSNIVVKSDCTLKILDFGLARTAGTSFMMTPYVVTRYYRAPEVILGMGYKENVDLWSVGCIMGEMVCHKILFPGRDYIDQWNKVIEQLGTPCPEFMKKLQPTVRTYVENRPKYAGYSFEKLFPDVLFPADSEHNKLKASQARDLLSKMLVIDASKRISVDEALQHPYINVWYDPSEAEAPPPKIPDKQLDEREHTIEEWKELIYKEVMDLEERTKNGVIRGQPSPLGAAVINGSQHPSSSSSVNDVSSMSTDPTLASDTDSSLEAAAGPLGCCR
# Chain of Vascular endothelial growth factor receptor 3 (P35916 whole entry): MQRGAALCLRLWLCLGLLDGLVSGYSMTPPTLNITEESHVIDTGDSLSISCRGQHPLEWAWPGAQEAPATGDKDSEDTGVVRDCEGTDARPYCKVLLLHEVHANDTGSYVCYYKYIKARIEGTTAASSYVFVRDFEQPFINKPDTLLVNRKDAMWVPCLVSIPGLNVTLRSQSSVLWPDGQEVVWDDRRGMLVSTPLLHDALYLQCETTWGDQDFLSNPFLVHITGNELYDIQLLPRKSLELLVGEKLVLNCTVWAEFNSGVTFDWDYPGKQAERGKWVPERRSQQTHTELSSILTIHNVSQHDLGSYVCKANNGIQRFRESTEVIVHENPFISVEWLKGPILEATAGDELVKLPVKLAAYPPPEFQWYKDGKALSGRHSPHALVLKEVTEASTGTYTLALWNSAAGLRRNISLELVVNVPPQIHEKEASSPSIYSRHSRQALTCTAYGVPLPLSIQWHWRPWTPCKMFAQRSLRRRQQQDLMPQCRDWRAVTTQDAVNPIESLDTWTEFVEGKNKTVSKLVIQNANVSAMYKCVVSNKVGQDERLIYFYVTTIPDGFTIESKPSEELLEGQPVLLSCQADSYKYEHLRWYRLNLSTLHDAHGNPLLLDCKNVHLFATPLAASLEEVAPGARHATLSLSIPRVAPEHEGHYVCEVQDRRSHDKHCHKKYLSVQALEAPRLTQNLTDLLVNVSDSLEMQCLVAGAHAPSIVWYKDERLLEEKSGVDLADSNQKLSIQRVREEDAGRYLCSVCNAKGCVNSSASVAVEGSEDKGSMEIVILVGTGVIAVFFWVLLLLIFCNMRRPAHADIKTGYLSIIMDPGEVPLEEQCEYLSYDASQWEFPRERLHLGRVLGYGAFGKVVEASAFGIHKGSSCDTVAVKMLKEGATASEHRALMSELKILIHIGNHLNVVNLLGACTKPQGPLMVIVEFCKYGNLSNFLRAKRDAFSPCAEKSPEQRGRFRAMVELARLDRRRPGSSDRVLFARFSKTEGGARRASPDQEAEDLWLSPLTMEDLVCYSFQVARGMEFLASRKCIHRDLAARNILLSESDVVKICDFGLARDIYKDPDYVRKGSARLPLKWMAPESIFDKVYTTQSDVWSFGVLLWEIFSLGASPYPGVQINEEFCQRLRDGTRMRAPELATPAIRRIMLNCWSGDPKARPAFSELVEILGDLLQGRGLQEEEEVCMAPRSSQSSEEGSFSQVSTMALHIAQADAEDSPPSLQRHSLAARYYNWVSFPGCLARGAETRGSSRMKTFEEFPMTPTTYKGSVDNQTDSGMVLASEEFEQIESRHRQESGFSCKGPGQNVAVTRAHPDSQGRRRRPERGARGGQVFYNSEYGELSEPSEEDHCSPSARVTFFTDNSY
# Chain of Death-associated protein kinase 3 (O43293 whole entry): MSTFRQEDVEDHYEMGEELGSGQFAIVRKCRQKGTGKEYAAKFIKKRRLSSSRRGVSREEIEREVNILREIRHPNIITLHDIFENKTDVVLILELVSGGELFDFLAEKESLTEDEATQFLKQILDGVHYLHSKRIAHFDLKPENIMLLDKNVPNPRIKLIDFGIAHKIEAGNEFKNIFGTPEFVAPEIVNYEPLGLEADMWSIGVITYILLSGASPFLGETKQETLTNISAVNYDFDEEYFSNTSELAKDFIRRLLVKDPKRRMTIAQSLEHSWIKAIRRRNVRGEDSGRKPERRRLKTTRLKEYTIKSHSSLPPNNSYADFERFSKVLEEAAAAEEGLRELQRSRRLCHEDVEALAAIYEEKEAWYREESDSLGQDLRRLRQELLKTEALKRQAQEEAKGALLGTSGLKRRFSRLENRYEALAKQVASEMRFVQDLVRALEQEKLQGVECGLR
# Chain of LIM domain kinase 1 (P53667 whole entry, the tested form may be a part): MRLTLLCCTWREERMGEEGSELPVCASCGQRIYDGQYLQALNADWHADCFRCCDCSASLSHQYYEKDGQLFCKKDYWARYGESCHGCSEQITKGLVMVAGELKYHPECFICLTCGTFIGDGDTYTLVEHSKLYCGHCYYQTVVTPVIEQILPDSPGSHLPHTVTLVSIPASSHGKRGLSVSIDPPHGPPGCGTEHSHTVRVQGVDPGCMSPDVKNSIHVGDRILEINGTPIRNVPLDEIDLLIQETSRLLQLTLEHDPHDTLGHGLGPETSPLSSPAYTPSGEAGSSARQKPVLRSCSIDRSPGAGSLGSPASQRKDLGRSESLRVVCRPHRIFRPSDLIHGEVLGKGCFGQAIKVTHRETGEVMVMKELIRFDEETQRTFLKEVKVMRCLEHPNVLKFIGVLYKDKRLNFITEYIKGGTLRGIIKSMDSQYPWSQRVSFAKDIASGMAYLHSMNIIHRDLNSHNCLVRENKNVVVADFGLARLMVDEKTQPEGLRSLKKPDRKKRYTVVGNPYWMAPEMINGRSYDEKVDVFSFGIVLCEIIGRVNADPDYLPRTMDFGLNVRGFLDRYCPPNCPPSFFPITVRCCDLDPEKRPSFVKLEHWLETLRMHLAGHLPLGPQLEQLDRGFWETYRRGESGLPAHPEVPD
# Chain of Calcium/calmodulin-dependent protein kinase type II subunit gamma (Q13555 whole entry): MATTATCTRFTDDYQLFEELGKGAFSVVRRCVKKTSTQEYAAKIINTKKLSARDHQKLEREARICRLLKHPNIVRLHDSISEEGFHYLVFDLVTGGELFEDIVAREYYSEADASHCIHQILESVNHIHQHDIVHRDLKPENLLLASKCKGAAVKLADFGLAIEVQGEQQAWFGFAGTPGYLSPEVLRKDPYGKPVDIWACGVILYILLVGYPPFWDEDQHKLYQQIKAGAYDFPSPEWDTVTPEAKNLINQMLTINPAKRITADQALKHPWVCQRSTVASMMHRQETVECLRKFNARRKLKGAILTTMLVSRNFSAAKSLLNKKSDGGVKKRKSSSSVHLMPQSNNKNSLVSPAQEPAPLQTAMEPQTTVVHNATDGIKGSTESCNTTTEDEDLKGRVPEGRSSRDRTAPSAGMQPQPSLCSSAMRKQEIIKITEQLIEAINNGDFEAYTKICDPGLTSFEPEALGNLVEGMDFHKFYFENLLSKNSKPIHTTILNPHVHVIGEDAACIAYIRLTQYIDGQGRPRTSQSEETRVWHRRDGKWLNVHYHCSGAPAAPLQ
compound,measurement,setting,value
NC(=O)Cn1cc(-c2cc(-c3cc4ccccc4s3)c3[nH]ncc3c2)c2nc(N)ncc21,Ki,[1],1.58 µM (active)
same,Ki,[2],3.98 µM (active)
same,Ki,Ephrin type-A receptor 2,> 3.16 µM (inactive)
same,Ki,[3],> 7.94 µM (inactive)
same,Ki,[4],1.58 µM (active)
same,Ki,[5],1.58 µM (active)
same,Ki,[6],0.1 µM (active)
same,Ki,[7],3.16 µM (active)
same,Ki,LIM domain kinase 1,3.98 µM (active)
same,Ki,Misshapen-like kinase 1,0.501 µM (active)
same,Ki,Aurora kinase B,3.98 µM (active)
same,Ki,[8],2.51 µM (active)
same,Ki,[9],> 1.58 µM (inactive)
same,Ki,[10],> 7.94 µM (inactive)
same,Ki,[11],3.98 µM (active)
same,Ki,[12],1 µM (active)
same,Ki,[13],> 2 µM (inactive)
same,Ki,[14],> 1.58 µM (inactive)
same,Ki,[15],> 1.26 µM (inactive)
same,Ki,[16],0.126 µM (active)
same,Ki,[17],0.251 µM (active)
same,Ki,[18],> 7.94 µM (inactive)
same,Ki,[19],> 3.98 µM (inactive)
same,Ki,[20],> 3.16 µM (inactive)
same,Ki,Aurora kinase A,1.26 µM (active)
same,Ki,[21],> 0.631 µM (inactive)
same,Ki,[22],1 µM (active)
same,Ki,[23],> 1.26 µM (inactive)
same,Ki,[24],0.2 µM (active)
same,Ki,[25],> 2.51 µM (inactive)
same,Ki,[26],0.00794 µM (active)
same,Ki,[27],> 1.58 µM (inactive)
same,Ki,[28],2.51 µM (active)
same,Ki,[29],0.794 µM (active)
same,Ki,[30],0.2 µM (active)
same,Ki,[31],0.1 µM (active)
same,Ki,[32],> 1.58 µM (inactive)
same,Ki,[33],0.0398 µM (active)
same,Ki,[34],3.16 µM (active)
same,Ki,[35],6.31 µM (active)
same,Ki,[36],> 10 µM (inactive)
same,Ki,[37],0.398 µM (active)
same,Ki,[38],5.01 µM (active)
same,Ki,[39],> 2 µM (inactive)
same,Ki,[40],> 0.398 µM (inactive)
same,Ki,[41],2.51 µM (active)
same,Ki,[42],0.0631 µM (active)

# — ChEMBL document CHEMBL1201862, “PubChem BioAssay data set” (2004)
